Measurements: patent US20230047825A1, “ANTIMICROBIAL PEPTIDES” (priority 2019, published 2023)
≈ marks a conversion by molar mass, not a printed value. Read-outs that look alike come from different tables or passages of the source.

Columns and labels:
Assay in all cases: microbe, parasite or virus in culture
[1] = system: Staphylococcus aureus ATCC 19636 (Smith)
Experimental: (§1) The S. aureus strains ATCC 29213, ATCC 19636, ATCC 33591 (MRSA), BAA-1556 (MRSA USA 300) were obtained from the American Type Culture Collection (ATCC). […] The species identity was confirmed with 16S rRNA analysis.
(§2) Two broth mediums were used, Mueller Hinton Broth and RPMI 1640+5% fetal bovine serum. Test substances were evaluated in 11-point titrations and performed in duplicate.
(§3) The direct colony suspension method was used to prepare inoculated broth. Isolated colonies were taken from an 18-24 h culture plate. Optical density measurements (OD620nm) were used to estimate the bacterial density. […] The stock solutions were diluted by 2-fold serial titrations with their respective vehicles for a total of 11 concentrations.
(§4) A 4 μL aliquot of each dilution was added to 196 μL of broth medium seeded with the organism in wells of a sterilized 96 well polypropylene plate (Nunc™ 249949) using aluminum foil as cover. The final bacterial count was 2 to 8×10^5 CFU/mL. […] The final test article concentration range was 32 to 0.0313 μg/mL.
(§5) Each test substance dilution was evaluated in duplicate on one test occasion. […] Plates were incubated at 35-37° C. for 18 h. The test plates were visually examined and each well was visually scored for growth or complete inhibition of growth. The MIC value was recorded.

[2] = system: Staphylococcus aureus ATCC 33591 (MRSA); details: for MIC: Staphylococcus aureus
Experimental: as §1, §2, §3, §4, §5

[3] = system: Staphylococcus aureus ATCC BAA-1556 (USA300, MRSA)
Experimental: as §1, §2, §3, §4, §5

[4] = system: Staphylococcus aureus ATCC 29213; details: for MIC: Staphylococcus aureus; for susceptibility category (CLSI M100 interpretive criteria) / MIC, antibiotic susceptibility: ATCC 29213
Experimental: as §1, §2, §3, §4, §5

[5] = system: Staphylococcus aureus VRS-2 (VanA, VRSA); set-up: MIC, antibiotic susceptibility: unit not given beside the values; details: for MIC: Staphylococcus aureus, VRSA; for MIC, antibiotic susceptibility: unit not given
Experimental: as §1, §2, §3, §4, §5

[6] = Staphylococcus aureus, ATCC19636, 18 h, read-out: MIC, antibiotic susceptibility
[7] = ATCC33591|MRSA, 18 h, read-out: MIC, antibiotic susceptibility, ATCC 33591, CLSI M7-A10, unit inferred
[8] = Staphylococcus aureus, ATCCBAA1556|BAA1556|MRSA|USA300, 18 h, read-out: MIC, antibiotic susceptibility
[9] = ATCC29213, 18 h, read-out: MIC, antibiotic susceptibility, ATCC 29213, CLSI M7-A10, unit inferred
[10] = 18 h, read-out: MIC, antibiotic susceptibility, VRS-2, CLSI M7-A10, unit inferred

MIC [1, 6] [µg/mL]	MIC [2, 7] [µg/mL]	MIC [3, 8] [µg/mL]	MIC [4, 9] [µg/mL]	MIC [5, 10] [µg/mL]	Compound	susceptibility category (CLSI M100 interpretive criteria) ([1]; ATCC 19636 (Smith))	susceptibility category (CLSI M100 interpretive criteria) ([2]; ATCC 33591)	susceptibility category (CLSI M100 interpretive criteria) ([3]; BAA-1556)	susceptibility category (CLSI M100 interpretive criteria) [4]	susceptibility category (CLSI M100 interpretive criteria) ([5]; VRS-2)	further results
2 (≈ 4.16 µM)	> 64	16 to 64 (≈ 33.3 to 133 µM)	2 to 4 (≈ 4.16 to 8.32 µM)	> 64	CO/N=C(\C(=O)N[C@@H]1C(=O)N2C(C(=O)[O-])=C(C[N+]3(C)CCCC3)CS[C@H]12)c1csc(N)n1 [Cefepime]	–	–	–	–	–	–
4 (≈ 7.21 µM)	> 64	≥ 64	4 (≈ 7.21 µM)	> 64	CO/N=C(\C(=O)N[C@@H]1C(=O)N2C(C(=O)O)=C(CSc3nc(=O)c(=O)[nH]n3C)CS[C@H]12)c1csc(N)n1 [Ceftriaxone]	–	–	–	–	–	–
0.125 (≈ 0.294 µM)	> 64	> 64	0.125 (≈ 0.294 µM)	> 64	CCC[C@@H]1C[C@@H](C(=O)N[C@@H]([C@H]2O[C@H](SC)[C@H](O)[C@@H](O)[C@H]2O)[C@H](C)Cl)N(C)C1 [Clindamycin]	S	R	R	S	R	–
0.25 (≈ 0.154 µM)	0.5 (≈ 0.309 µM)	0.25 (≈ 0.154 µM)	0.125 to 0.5 (≈ 0.0771 to 0.309 µM)	0.25 (≈ 0.154 µM)	CCCCCCCCCC(=O)N[C@@H](Cc1c[nH]c2ccccc12)C(=O)N[C@H](CC(N)=O)C(=O)N[C@@H](CC(=O)O)C(=O)N[C@@H]1C(=O)NCC(=O)N[C@@H](CCCN)C(=O)N[C@@H](CC(=O)O)C(=O)N[C@H](C)C(=O)N[C@@H](CC(=O)O)C(=O)NCC(=O)N[C@H](CO)C(=O)N[C@@H]([C@H](C)CC(=O)O)C(=O)N[C@@H](CC(=O)c2ccccc2N)C(=O)O[C@@H]1C [Daptomycin]	S	S	S	S	S	–
0.25 to 1 (≈ 0.341 to 1.36 µM)	> 64	> 64	0.25 to 1 (≈ 0.341 to 1.36 µM)	> 64	CC[C@H]1OC(=O)[C@H](C)[C@@H](O[C@H]2C[C@@](C)(OC)[C@@H](O)[C@H](C)O2)[C@H](C)[C@@H](O[C@@H]2O[C@H](C)C[C@H](N(C)C)[C@H]2O)[C@](C)(O)C[C@@H](C)C(=O)[C@H](C)[C@@H](O)[C@]1(C)O [Erythromycin]	S-I	R	R	S-I	R	–
≤ 0.016	≥ 16	0.125 to 0.25 (≈ 0.418 to 0.835 µM)	0.016 to 0.031 (≈ 0.0534 to 0.104 µM)	> 16	C[C@@H](O)[C@H]1C(=O)N2C(C(=O)O)=C(SCCN=CN)C[C@H]12 [Imipenem]	–	–	–	–	–	–
0.125 (≈ 0.346 µM)	0.25 (≈ 0.692 µM)	4 to 8 (≈ 11.1 to 22.1 µM)	0.125 to 0.25 (≈ 0.346 to 0.692 µM)	32 (≈ 88.6 µM)	C[C@H]1COc2c(N3CCN(C)CC3)c(F)cc3c(=O)c(C(=O)O)cn1c23 [Levofloxacin]	S	S	R	S	R	–
2 to 4 (≈ 5.93 to 11.9 µM)	0.5 to 1 (≈ 1.48 to 2.96 µM)	2 (≈ 5.93 µM)	2 to 4 (≈ 5.93 to 11.9 µM)	2 (≈ 5.93 µM)	CC(=O)NC[C@H]1CN(c2ccc(N3CCOCC3)c(F)c2)C(=O)O1 [Linezolid]	S	S	S	S	S	MIC ([1]; ATCC 19636 (Smith), MHB): 2 µg/mL (≈ 5.93 µM); MIC ([2]; ATCC 33591, MHB): 2 µg/mL (≈ 5.93 µM); MIC ([2]; ATCC 33591, RPMI + 5% FBS): 1 µg/mL; MIC ([3]; ATCC BAA-1556, MHB): 2 µg/mL (≈ 5.93 µM); MIC ([4]; ATCC29213, ATCC 29213, MHB): 4 µg/mL (≈ 11.9 µM); MIC ([4]; ATCC29213, ATCC 29213, RPMI + 5% FBS): 2 µg/mL; MIC ([5]; VRS-2, MHB): 2 µg/mL (≈ 5.93 µM); MIC ([5]; VRS-2, RPMI + 5% FBS): 1 µg/mL
–	–	–	0.0625 (≈ 0.163 µM)	–	C[C@@H](O)[C@H]1C(=O)N2C(C(=O)O)=C(S[C@@H]3CN[C@H](C(=O)N(C)C)C3)[C@H](C)[C@H]12 [Meropenem]	–	–	–	–	–	–
1 (≈ 2 µM)	1 to 2 (≈ 2 to 3.99 µM)	> 64	0.25 to 2 (≈ 0.499 to 3.99 µM)	1 to 2 (≈ 2 to 3.99 µM)	C/C(=C\C(=O)OCCCCCCCCC(=O)O)C[C@@H]1OC[C@H](C[C@@H]2O[C@H]2[C@@H](C)[C@H](C)O)[C@@H](O)[C@H]1O [Mupirocin]	–	–	–	–	–	–
–	–	–	–	–	Gentamicin	S	S	S	S	R	MIC, antibiotic susceptibility ([1]; ATCC 19636 (Smith), CLSI M7-A10, unit inferred): 0.25 µg/mL; MIC, antibiotic susceptibility ([2]; ATCC 33591, CLSI M7-A10, unit not given, in µg/mL): 0.25-1; MIC, antibiotic susceptibility ([3]; BAA-1556, CLSI M7-A10, unit not given, in µg/mL (unit assumed)): 0.25-0.5; MIC, antibiotic susceptibility ([4]; CLSI M7-A10, unit inferred): 0.25 µg/mL; MIC, antibiotic susceptibility ([5]; VRS-2, CLSI M7-A10, in µg/mL (unit assumed)): 32-64
–	–	–	–	–	Teicoplanin	–	–	–	S	–	MIC, antibiotic susceptibility ([4]; CLSI M7-A10, unit inferred): 0.25 µg/mL
–	–	–	–	–	Trimethoprim/sulfamethoxazole	S	S	S	S	R	MIC, antibiotic susceptibility ([5]; VRS-2, CLSI M7-A10): >8/152

Compound	MIC [1, 6] [µg/mL]	MIC [2, 7] [µg/mL]	MIC [3, 8] [µg/mL]	MIC [4, 9] [µg/mL]	MIC [5, 10] [µg/mL]	susceptibility category (CLSI M100 interpretive criteria) ([1]; ATCC 19636 (Smith))	susceptibility category (CLSI M100 interpretive criteria) ([2]; ATCC 33591)	susceptibility category (CLSI M100 interpretive criteria) ([3]; BAA-1556)	susceptibility category (CLSI M100 interpretive criteria) [4]	susceptibility category (CLSI M100 interpretive criteria) ([5]; VRS-2)	further results
Cc1onc(-c2ccccc2)c1C(=O)N[C@@H]1C(=O)N2[C@@H]1SC(C)(C)[C@@H]2C(=O)O [Oxacillin]	0.25 (≈ 0.623 µM)	> 64	64 (≈ 159 µM)	0.25 to 0.5 (≈ 0.623 to 1.25 µM)	> 64	S	R	R	S	R	–
CN(C)c1cc(NC(=O)CNC(C)(C)C)c(O)c2c1C[C@H]1C[C@H]3[C@H](N(C)C)C(O)=C(C(N)=O)C(=O)[C@@]3(O)C(O)=C1C2=O [Tigecycline]	0.125 to 0.25 (≈ 0.213 to 0.427 µM)	–	0.25 (≈ 0.427 µM)	–	–	–	–	–	–	–	MIC ([2]; ATCC33591|MRSA, 18 h, read-out: MIC, antibiotic susceptibility): 0.25 to 0.5 µg/mL (≈ 0.427 to 0.854 µM); MIC ([4]; ATCC29213, 18 h, read-out: MIC, antibiotic susceptibility): 0.125 to 0.25 µg/mL (≈ 0.213 to 0.427 µM); MIC ([5]; 18 h, read-out: MIC, antibiotic susceptibility): 0.25 µg/mL (≈ 0.427 µM)
